{
  "source": "patent US20060009441A1",
  "about": "“Human trace amine associated receptors” (priority 2004, published 2006)",
  "target": "Human TAAR 1 (Homo sapiens, UniProt Q96RJ0)",
  "sequence (Q96RJ0 with tags, fused parts or gaps)": "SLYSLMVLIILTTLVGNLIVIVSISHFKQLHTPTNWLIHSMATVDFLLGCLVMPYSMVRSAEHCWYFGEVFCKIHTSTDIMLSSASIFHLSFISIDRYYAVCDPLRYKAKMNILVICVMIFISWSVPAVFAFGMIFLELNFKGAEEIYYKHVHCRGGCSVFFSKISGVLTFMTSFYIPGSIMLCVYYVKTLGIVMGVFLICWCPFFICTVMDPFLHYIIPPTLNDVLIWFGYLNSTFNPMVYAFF",
  "sequence (Q923Y9 with tags, fused parts or gaps partner)": "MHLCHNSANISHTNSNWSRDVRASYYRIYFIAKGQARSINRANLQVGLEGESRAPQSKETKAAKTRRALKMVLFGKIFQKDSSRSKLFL",
  "assay": "cAMP Biotrak EIA functional assay in HEK293 cells stably expressing hTAAR1",
  "format": "cell-based",
  "settings": "for Emax: HEK293, read-out: Max (maximal response as percentage of the maximal cAMP levels induced by p-TYR)",
  "key": {"[1]": {"settings": "cAMP production in HEK293 cells stably expressing human TAAR 1 (chimera with rat TAAR 1 N-/C-terminus and 3rd intracellular loop, HA leader), means of at least three independent experiments"}},
  "note": "Where two headings read alike, the source gives them in different places.",
  "data": [
    {"smiles": "NCCc1ccc(O)c(O)c1", "note": "[Dopamine, dopamine]", "values": [
      {"measurement": "Emax", "value": 50, "unit": "%"}
    ]},
    {"smiles": "NCCc1c[nH]cn1", "note": "[Histamine, histamine]", "values": [
      {"measurement": "EC50", "setting": "[1]", "value": "> 50000", "unit": "nM"}
    ]},
    {"smiles": "CNCCc1ccc(O)cc1", "note": "[N-methyl-p-tyramine]", "values": [
      {"measurement": "Max (maximal response as percentage of the maximal cAMP levels induced by p-TYR)", "value": 100, "unit": "%"},
      {"measurement": "EC50", "setting": "[1]", "value": 2050, "unit": "nM"}
    ]},
    {"smiles": "CNCCc1ccccc1", "note": "[N-methyl-β-PEA]", "values": [
      {"measurement": "Max (maximal response as percentage of the maximal cAMP levels induced by p-TYR)", "value": 100, "unit": "%"},
      {"measurement": "EC50", "setting": "[1]", "value": 160, "unit": "nM"}
    ]},
    {"smiles": "NC[C@H](O)c1ccc(O)c(O)c1", "note": "[Norepinephrine, norepinephrine]", "values": [
      {"measurement": "EC50", "setting": "[1]", "value": "> 50000", "unit": "nM"}
    ]},
    {"smiles": "NCC(O)c1ccc(O)cc1", "note": "(stereo not shown) [OCT, octopamine]", "values": [
      {"measurement": "Emax", "value": 100, "unit": "%"},
      {"measurement": "EC50", "setting": "[1]", "value": 10300, "unit": "nM"}
    ]},
    {"smiles": "NCCc1c[nH]c2ccc(O)cc12", "note": "[Serotonin, 5-HT, Serotonin]", "values": [
      {"measurement": "EC50", "setting": "[1]", "value": "> 50000", "unit": "nM"}
    ]},
    {"smiles": "NCCc1c[nH]c2ccccc12", "note": "[TRY, tryptamine]", "values": [
      {"measurement": "Emax", "value": 100, "unit": "%"},
      {"measurement": "EC50", "setting": "[1]", "value": 46900, "unit": "nM"}
    ]},
    {"smiles": "NCCc1ccc(O)cc1", "note": "[p-TYR, p-tyramine]", "values": [
      {"measurement": "EC50", "value": 1070, "unit": "nM"},
      {"measurement": "Max (maximal response as percentage of the maximal cAMP levels induced by p-TYR)", "value": 100, "unit": "%"}
    ]},
    {"smiles": "NCCc1ccccc1", "note": "[β-PEA, β-phenylethylamine]", "values": [
      {"measurement": "Emax", "value": 100, "unit": "%"},
      {"measurement": "EC50", "setting": "[1]", "value": 300, "unit": "nM"}
    ]}
  ]
}
